Data from patent publication US9204640B2, “2-acyloxy-pyrrolin-4-ones” (BAYER INTELLECTUAL PROPERTY GMBH, priority 2011, dated 2015).

Experiments:
Type in all cases: in vivo
Amaranthus retroflexus = assay: Herbicidal post-emergence action, AMARE; conditions: Amaranthus retroflexus, post-emergence
Excerpt: (§1) • Seeds of monocotyledonous and dicotyledonous weed plants and crop plants are placed in wood-fiber pots in sandy loam and covered with soil. The test compounds, formulated in the form of wettable powders (WP) or emulsion concentrates (EC), are then, as an aqueous suspension with a water application rate of 600-800 l/ha (converted), with 0.1-0.2% of wetting agent added, applied at various dosages to the surface of the covering soil. • After the treatment, the pots are placed in a greenhouse and kept under good growth conditions for the test plants. […] Herbicidal Post-Emergence Action (Post) • Seeds of monocotyledonous and dicotyledonous weed and crop plants are placed in sandy loam in wood-fiber pots, covered with soil and cultivated in a greenhouse under good growth conditions. 2-3 weeks (stages 10-13 according to the BBCH scale) after sowing, the test plants are treated at a height of 5-10 cm. The test compounds, formulated as wettable powders (WP) or emulsion concentrates (EC), are then, with a water application rate of 600-800 l/ha (converted), with 0.1-0.2% of wetting agent added, sprayed at various dosages onto the green parts of the plants. […]

Avena sativa = assay: Herbicidal post-emergence action, AVESA; conditions: Avena sativa, post-emergence
Excerpt: as §1

Lolium multiflorum [1] = assay: Herbicidal post-emergence action, LOLMU
Protocol: (§2) 2. Herbicidal Post-Emergence Action
(§3) • Seeds of monocotyledonous and dicotyledonous weed and crop plants are placed in sandy loam in wood-fiber pots, covered with soil and cultivated in a greenhouse under good growth conditions. 2 to 3 weeks after sowing, the test plants are treated at the one-leaf stage. The test compounds, formulated as wettable powders (WP), are then, with a water application rate of 600 l/ha (converted), with 0.2% of wetting agent added, sprayed at various dosages onto the green parts of the plants. After the test plants have been kept in the greenhouse under optimum growth conditions for about 3 weeks, the activity of the preparations is rated visually in comparison to untreated controls (herbicidal activity in percent: 100% activity=the plants have died, 0% activity=like control plants). • In addition to the compounds mentioned above, the following compounds show an activity of 90-100% against Alopecurus myosuroides, Avena fatua, Digitaria sanguinalis, Echinocloa crus-galli, Lolium multiflorum, Setaria viridis and Sorghum halapense when applied by the post-emergence method at 320 g/ha: I-a-2, I-a-4, I-a-5, I-a-7, I-a-9, I-a-10, I-a-11, I-a-12, I-a-13, I-a-15. • In addition to the compounds mentioned above, the following compounds show an activity of 90-100% against Alopecurus myosuroides, Avena fatua, Echinocloa crus-galli, Lolium multiflorum and Setaria viridis when applied by the post-emergence method at 80 g/ha: I-a-1, I-b-2.
(§4) • Seeds of monocotyledonous and dicotyledonous weed plants and crop plants are placed in wood-fiber pots in sandy loam and covered with soil. The test compounds, formulated in the form of wettable powders (WP) or emulsion concentrates (EC), are then, as an aqueous suspension with a water application rate of 600-800 l/ha (converted), with 0.1-0.2% of wetting agent added, applied at various dosages to the surface of the covering soil. • After the treatment, the pots are placed in a greenhouse and kept under good growth conditions for the test plants. […] Herbicidal Post-Emergence Action (Post) • Seeds of monocotyledonous and dicotyledonous weed and crop plants are placed in sandy loam in wood-fiber pots, covered with soil and cultivated in a greenhouse under good growth conditions. 2-3 weeks (stages 10-13 according to the BBCH scale) after sowing, the test plants are treated at a height of 5-10 cm. The test compounds, formulated as wettable powders (WP) or emulsion concentrates (EC), are then, with a water application rate of 600-800 l/ha (converted), with 0.1-0.2% of wetting agent added, sprayed at various dosages onto the green parts of the plants.
(§5) AVEFA: Avena fatua LOLMU: Lolium multiflorum SETVI: Setaria viridis CHEAL: Chenopodium album VIOTR: Viola tricolor VERPE: Veronica persica ORYSA: Oryza sativa TRZAS: Triticum aestivum ZEAMX: Zea mays ALOMY: Alopecurus myosuroides DIGSA: Digitaria sanguinalis ECHCG: Echinocloa crus-galli SORHA: Sorghum halepense AVESA: Avena sativa AMARE: Amaranthus retroflexus SINAL: Sinapis alba STEME: Stellaria media

Setaria viridis [2] = assay: Herbicidal post-emergence action, SETVI
Protocol: as §2, §3, §4, §5

Sinapis alba = assay: Herbicidal post-emergence action, SINAL; conditions: Sinapis alba, post-emergence
Excerpt: as §1

Stellaria media = assay: Herbicidal post-emergence action, STEME; conditions: Stellaria media, post-emergence
Excerpt: as §1

Liriomyza trifolii = Liriomyza trifolii spray test (LIRITR); conditions: Liriomyza trifolii, 168 h, 7dat, read-out: % Activity LIRITRI
Protocol: Liriomyza Trifolii-Spray Test ([…]) To produce a suitable preparation of active compound, 1 part by weight of active compound is mixed with the stated amount of solvent and emulsifier, and the concentrate is diluted with emulsifier-containing water to the desired concentration. If the addition of ammonium salts or/and penetrants is required, these are in each case added in a concentration of 1000 ppm to the solution of the preparations. Discs of bean leaves (Phaseolus vulgaris) which are infested by all stages of the leaf-mining fly (Liriomyza trifolii) are sprayed with an active compound preparation of the desired concentration. After the desired period of time, the activity in % is determined. 100% means that all of the leaf-mining flies have been killed; 0% means that none of the leaf-mining flies have been killed.

Bemisia tabaci = Bemisia tabaci spray test (BEMITA); conditions: Bemisia tabaci, 168 h, 7dat
Protocol: Bemisia Tabaci-Spray Test ([…]) To produce a suitable preparation of active compound, 1 part by weight of active compound is mixed with the stated amount of solvent and emulsifier, and the concentrate is diluted with emulsifier-containing water to the desired concentration. Discs of cotton leaves (Gossypium hirsutum) which are infested by all stages of the whitefly (Bemisia tabaci) are sprayed with an active compound preparation of the desired concentration. After the desired period of time, the activity in % is determined. 100% means that all the whiteflies have been killed; 0% means that none of the whiteflies have been killed.

Tetranychus urticae = assay: Tetranychus test (TETRUR spray treatment; OP-resistant in Example 10); conditions: Tetranychus urticae, 120 h; 20 g/ha; 5dat; OP-resistant
Protocol: Tetranychus Test (TETRUR Spray Treatment)
To produce a suitable preparation of active compound, 1 part by weight of active compound is mixed with the stated amount of solvent and emulsifier, and the concentrate is diluted with emulsifier-containing water to the desired concentration. Discs of bean leaves (Phaseolus vulgaris) which are infested by all stages of the greenhouse red spider mite (Tetranychus urticae) are sprayed with an active compound preparation of the desired concentration.
After 5 days, the effect in % is determined. 100% means that all of the spider mites have been killed; 0% means that none of the spider mites have been killed.
Tetranychus Test, OP-Resistant (TETRUR Spray Treatment)
To produce a suitable preparation of active compound, 1 part by weight of active compound is mixed with the stated amount of solvent and emulsifier, and the concentrate is diluted with emulsifier-containing water to the desired concentration.
Discs of bean leaves (Phaseolus vulgaris) which are infested by all stages of the greenhouse red spider mite (Tetranychus urticae) are sprayed with an active compound preparation of the desired concentration.
After the desired period of time, the activity in % is determined. 100% means that all of the spider mites have been killed; 0% means that none of the spider mites have been killed.

Spodoptera frugiperda = Spodoptera frugiperda test (SPODFR spray treatment); conditions: Spodoptera frugiperda, 168 h; 500 g/ha; 7dat
Protocol: Spodoptera Frugiperda Test (SPODFR Spray Treatment) [table] To produce a suitable preparation of active compound, 1 part by weight of active compound is mixed with the stated amount of solvent and emulsifier, and the concentrate is diluted with emulsifier-containing water to the desired concentration. Discs of corn leaves (Zea mays) are sprayed with an active compound preparation of the desired concentration and, after drying, populated with caterpillars of the armyworm (Spodoptera frugiperda). After 7 days, the effect in % is determined. 100% means that all caterpillars have been killed; 0% means that none of the caterpillars have been killed. Spodoptera Frugiperda Test (SPODFR Spray Treatment) To produce a suitable preparation of active compound, 1 part by weight of active compound is mixed with the stated amount of solvent and emulsifier, and the concentrate is diluted with emulsifier-containing water to the desired concentration. Discs of corn leaves (Zea mays) are sprayed with an active compound preparation of the desired concentration and, after drying, populated with caterpillars of the armyworm (Spodoptera frugiperda). After the desired period of time, the activity in % is determined. 100% means that all caterpillars have been killed; 0% means that none of the caterpillars have been killed.

Avena fatua [3] = assay: Herbicidal pre-emergence action, AVEFA; conditions: 320 g/ha
Excerpt: (§6) 1. Herbicidal Pre-Emergence Action
(§7) • Seeds of monocotyledonous and dicotyledonous weed plants and crop plants are placed in wood-fiber pots in sandy loam and covered with soil. The test compounds, formulated in the form of wettable powders (WP), are then, as an aqueous suspension with a water application rate of 600 l/ha (converted), with 0.2% of wetting agent added, applied at various dosages to the surface of the covering soil. • After the treatment, the pots are placed in a greenhouse and kept under good growth conditions for the test plants. The visual assessment of the damage to the test plants is carried out after a trial period of about 3 weeks by comparison with untreated controls (herbicidal activity in percent: 100% activity=the plants have died, 0% activity=like control plants). • In addition to the compounds mentioned above, the following compounds show an activity of 90-100% against Alopecurus myosuroides, Digitaria sanguinalis, Echinocloa crus-galli, Lolium multiflorum, Setaria viridis and Sorghum halapense when applied by the pre-emergence method at 320 g/ha of a.i.: I-a-2, I-a-10, I-a-11, I-a-12.
(§8) 1. Herbicidal Pre-Emergence Action (Pre)
(§9) • Seeds of monocotyledonous and dicotyledonous weed plants and crop plants are placed in wood-fiber pots in sandy loam and covered with soil. […]

Alopecurus myosuroides = assay: Herbicidal post-emergence action, ALOMY; conditions: 80 g/ha
Protocol: as §2, §3, §4, §5

Veronica persica [4] = assay: Herbicidal post-emergence action, VERPE; conditions: 80 g/ha
Excerpt: as §1

Avena fatua [5] = assay: Herbicidal post-emergence action, AVEFA; conditions: 80 g/ha
Protocol: as §2, §3, §4, §5

Echinocloa crus-galli = assay: Herbicidal post-emergence action, ECHCG; conditions: 80 g/ha
Protocol: as §2, §3, §4, §5

Viola tricolor = assay: Herbicidal pre-emergence action, VIOTR; conditions: 320 g/ha
Excerpt: as §8, §1

Sorghum halepense = assay: Herbicidal post-emergence action, SORHA; conditions: 80 g/ha
Protocol: as §2, §3, §4, §5

Triticum aestivum = assay: Herbicidal post-emergence action, TRZAS; conditions: 80 g/ha
Excerpt: as §4, §5

Oryza sativa = assay: Herbicidal post-emergence action, ORYSA; conditions: 80 g/ha
Excerpt: as §4, §5

Setaria viridis [6] = assay: Herbicidal pre-emergence action, SETVI; conditions: 320 g/ha
Excerpt: as §6, §7, §8, §4, §5

Veronica persica [7] = assay: Herbicidal pre-emergence action, VERPE; conditions: 320 g/ha
Excerpt: as §8, §1

Lolium multiflorum [8] = assay: Herbicidal pre-emergence action, LOLMU; conditions: 320 g/ha
Excerpt: as §6, §7, §8, §9

Digitaria sanguinalis = assay: Herbicidal post-emergence action, DIGSA; conditions: 80 g/ha
Protocol: as §2, §3, §4, §5

Zea mays = assay: Herbicidal post-emergence action, ZEAMX; conditions: 80 g/ha
Excerpt: as §4, §5

Chenopodium album = assay: Herbicidal pre-emergence action, CHEAL; conditions: 320 g/ha
Excerpt: as §8, §1

## CCc1cc(Cl)cc(OC)c1C1=C(OC(=O)C(C)(C)C)C2(CCC(OC)CC2)NC1=O (stereo not drawn)
Amaranthus retroflexus
  inhibition at 320 g/ha: 0%
Avena sativa
  inhibition at 320 g/ha: 0%
Lolium multiflorum [1]; Lolium multiflorum, post-emergence, 320 g/ha
  inhibition at 320 g/ha: 0%
Setaria viridis [2]; Setaria viridis, post-emergence, 320 g/ha
  inhibition at 320 g/ha: 0%
Sinapis alba
  inhibition at 320 g/ha: 0%
Stellaria media
  inhibition at 320 g/ha: 0%

## CCOC(=O)OC1=C(c2c(C)cc(C)cc2C)C(=O)NC12CCC(COC)CC2 (stereo not drawn) [I-1-c-16 known from WO 07/048545]
Liriomyza trifolii
  inhibition at 20 g/ha: 0%
Bemisia tabaci
  inhibition at 20 g/ha: 27%
Tetranychus urticae
  inhibition at 20 g/ha: 0%
Spodoptera frugiperda
  inhibition at 500 g/ha: 67%

## CCc1cc(Cl)cc(Cl)c1C1=C(OC(=O)C(C)(C)C)NC2(CCC(C)CC2)C1=O (stereo not drawn) [I-a-4]
Avena fatua [3]
  % Activity AVEFA: 50%
Alopecurus myosuroides
  % Activity ALOMY: 100%
Veronica persica [4]
  % Activity VERPE: 60%
Avena fatua [5]
  % Activity AVEFA: 100%
Echinocloa crus-galli
  % Activity ECHCG: 100%
Viola tricolor
  % Activity VIOTR: 70%
Sorghum halepense
  % Activity SORHA: 100%
Triticum aestivum
  % Activity TRZAS: 100%
Oryza sativa
  % Activity ORYSA: 100%
Setaria viridis [6]
  % Activity SETVI: 90%
Lolium multiflorum [1]; 80 g/ha
  % Activity LOLMU: 100%
Veronica persica [7]
  % Activity VERPE: 40%
Lolium multiflorum [8]
  % Activity LOLMU: 100%
Setaria viridis [2]; 80 g/ha
  % Activity SETVI: 100%
Digitaria sanguinalis
  % Activity DIGSA: 100%
Zea mays
  % Activity ZEAMX: 100%
Chenopodium album
  % Activity CHEAL: 50%
